From patent US20150118726A1, “Processes Using Antibiotic Alternatives In Bioethanol Production” (Buckman Laboratories International, Inc., priority 2010, published 2015)

Tests used:
[1] = tested on: Saccharomyces cereviseae; experiment: Corn mash ethanol fermentation: effect of biocide on yeast / fermentation progress; assay type: cell-based, Saccharomyces cerevisiae
Experimental: (§1) Experiments were conducted to evaluate the effectiveness of a nonoxidizing biocide as an antimicrobial agent for control of Lactobacillus infections in ethanol fermentation. The nonoxidizing biocide was BRONAM® 20 (20% 2,2-dibromo-3-nitrilopropionamide). The lactobacilli was L. plantarum. The yeast was Saccharomyces cereviseae. Corn mashes containing approximately 30% (w/w) dry solids were used.
A 0.2-g/ml suspension of yeast (Saccharomyces cerevisiae; Ethanol Red; Fermentis, Marcq-en-Baroeul, France) was prepared in a sterile 250-ml flask. This suspension was incubated and mixed for 20 minutes at 40° C. before inoculation into the fermentation flasks. Each fermentation flask was inoculated with 160 μl of the yeast suspension to attain an initial concentration of 10^7 yeast cells/ml. After the initial 1-hr incubation with bacteria, the flasks were inoculated with yeast and dosed with BRONAM® 20. […]
The mass of each flask was recorded after all additions were made, and the sanitized fermentation traps were reinserted into each flask. The mass of each flask with the trap in place was also recorded. […] The mass of each flask with the traps in place were measured periodically throughout fermentation to estimate the rate of fermentation (the mass of the fermentation flasks decreases when carbon dioxide is lost by bubbling out of the fermentation traps). […]

[2] = tested on: L. plantarum; experiment: Corn mash ethanol fermentation infected with L. plantarum, treated with nonoxidizing biocide; assay type: cell-based, Lactobacillus plantarum; conditions: based on experimental results
Experimental: as §1
For slurry preparation, the moisture of ground corn was determined gravimetrically using a moisture balance by measuring the mass loss that occurred upon drying. The amount of corn, deionized (DI) water, and enzyme needed to prepare 160 g of corn slurry at a total dry solids concentration of 30% (w/w) for each replicate was determined. […]
For fermentation, once the mash was cooled, the entire contents (approximately 160 g) of each Labomat beaker were transferred to a sterile 250-ml Erlenmeyer flask. The masses of the mash and flasks were recorded, and the mass of mash transferred to the fermentation flasks was calculated. […]
The L. plantarum culture was prepared for inoculation by growing throughout the day in 100-ml of MRS broth. […] The initial concentration of the bacteria was determined by plating serial dilutions of the culture on MRS agar containing cycloheximide and incubating at 32° C. for 2 days before counting colonies. […]

[3] = tested on: Lactobacillus fermentans; experiment: MRS broth test of biocide combinations (Kull synergism method); assay type: cell-based; conditions: 25% MRS broth, 37° C., 24 hours
Experimental: Lactobacilli MRS broth (25% strength) was prepared and dispensed in 10 ml amounts into test tubes and autoclaved for 20 minutes at 121° C. The biocides were added to the test tubes in the desired concentrations, and then 100 microliters of an overnight broth of Lactobacillus fermentans were added to the respective test tubes and incubated at 37° C. for 24 hours.
QA/Qa+QB/Qb is less than 1.
Qa=Concentration of Compound A in parts per million, acting alone, which produced an endpoint; Qb=Concentration of Compound B in parts per million, acting alone, which produced an endpoint; QA=Concentration of Compound A in parts per million, in the mixture, which produced an endpoint; QB=Concentration of Compound B in parts per million, in the mixture, which produced an endpoint.
When the sum of QA/Qa and QB/Qb is greater than one, antagonism is indicated and when the sum is equal to one, additivity is indicated. When the sum of this value is less than one, synergism exists.

[4] = Persistence of DBNPA under fermentation tank conditions; assay type: physicochemical; conditions: under the conditions in the fermentation tank, based on laboratory work
Experimental: Under the conditions in the fermentation tank, DBNPA is expected to last intact only about 1-2 hours, based on laboratory work. The stillage, i.e., fermented unevaporated product (post “beer tank”) of distillation, is centrifuged, and dried (e.g., about 1 hour at about 250-300° F.), then the mixture is pumped over to a final tank where it is called the DDGS. DDGS is about ⅓ mass of the starting raw material for corn. The chemistry of DBNPA is not expected to endure and survive the centrifugation and heat of drying prior to entering distillers dried grains with solubles (DDGS) stage. In the corn-to-ethanol process, for example, DBNPA is expected to degrade to carbon dioxide and water vapor, and, as such, would have low environmental impact. […] The application of DBNPA avoids the use of antibiotics, which can remain stable throughout the process. The use of DBNPA makes the use of antibiotics unnecessary. The use of DBNPA is more economical since the cost of antibiotics (as the only treatment widely employed) can be relatively high and costly to the fermentation. […]

N#CC(Br)(Br)C(N)=O [2,2-dibromo-3-nitrilopropionamide]
effect on yeast involved in fermentation [1]: does not kill the yeast
effect on bacteria (lactobacilli) [2]: kills the bacteria
Qb, concentration of Compound B acting alone which produced an endpoint ([3]; Example 3): 100 ppm
time DBNPA lasts intact [4]: 1 to 2 h

O=[N+]([O-])C(Br)(CO)CO [2-bromo-2-nitropropane-1,3-diol]
Qb, concentration of Compound B acting alone which produced an endpoint ([3]; Example 2): 50 ppm

Nisin
Qa, concentration of Compound A acting alone which produced an endpoint ([3]; Example 2): 1.0 ppm
Qa, concentration of Compound A acting alone which produced an endpoint ([3]; Example 3): 1.0 ppm
